Converted amounts (≈) assume the structure as drawn. Where two headings read alike, the source gives them in different places.
Key:
[1] = tested on: E. coli ATCC 25922; experiment: MIC, broth microdilution; assay type: cell-based, Escherichia coli; details: Escherichia coli, ATCC25922, 24 h, 24-hour incubation, MHB; read-out: MIC90 E. coli ATCC 25922
Procedure: (§1) MIC was determined using the broth microdilution method in accordance with Clinical and Laboratory Standards Institute guidelines. All compounds were dissolved in dimethyl sulfoxide (DMSO; final DMSO concentration of less than 0.5%) and sterile double-distilled water and then diluted with Mueller-Hinton broth (MHB). Each compound’s stock solution was serially twofold diluted, resulting in concentrations ranging from 0.39 to 100 μg/ml, and thereafter added to sterile 96-well plates. All bacterial cell suspensions were adjusted in MHB to attain a starting inoculum of 1 × 10^6 cells/ml. A total of 100 μl volume of the bacterial suspension was then added to each well. Following a 24-hour incubation at 37°C, the optical density at 600 nm (OD600) was confirmed by measuring absorbance at 600 nm with a BioTek microplate reader. […] All measurements were repeated three times with duplicates each time.

[2] = tested on: rabbit erythrocytes; experiment: Hemolysis assay; assay type: cell-based; details: concentration causing 50% hemolysis of red blood cells; 1 hour, 37°C
Procedure: The hemolytic activity of antimicrobial agents was investigated as previously described ([70]). Briefly, the rabbit erythrocytes were centrifuged at 2500 rpm for 3 min before being washed twice with sterile phosphate-buffered saline (PBS) (pH 7.4). Subsequently, the erythrocytes were diluted with PBS to a final concentration of 8% (v/v). The DMSO-dissolved compounds were twofold serially diluted in PBS to achieve a final concentration with DMSO less than 0.5%. […] Sterile PBS and 0.2% Triton X-100 were used as negative and positive controls, respectively. After 1 hour of incubation at 37°C, the tested samples were centrifuged at 2500 rpm for 5 min, and aliquots of the supernatant were added to 96-well microplates. The hemoglobin release was determined by measuring the absorbance at 576 nm using a BioTek multimode reader. The percentage of hemolytic activity was calculated using the following formula: Hemolysis rate (%) = [OD576 (compound) − OD576 (PBS)]/[OD576 (Triton X-100) − OD576 (PBS)] × 100. All measurements were repeated three times with duplicates each time.

[3] = tested on: S. aureus ATCC 29213; experiment: MIC, broth microdilution; assay type: cell-based; details: Staphylococcus aureus, ATCC29213, 24 h, 24-hour incubation, MHB; read-out: MIC90 S. aureus ATCC 29213
Procedure: as §1

[4] = tested on: MRSA N315; experiment: MIC, broth microdilution; assay type: cell-based; details: Staphylococcus aureus, 24-hour incubation, MHB, read-out: MIC90 MRSA N315
Procedure: as §1

[5] = tested on: K. pneumonia ATCC 14581; experiment: MIC, broth microdilution; assay type: cell-based; details: Klebsiella pneumoniae, ATCC14581; 24-hour incubation, MHB
Procedure: as §1

[6] = tested on: A. baumannii ATCC 17978; experiment: MIC, broth microdilution; assay type: cell-based; details: Acinetobacter baumannii, ATCC17978; 24-hour incubation, MHB
Procedure: as §1

[7] = tested on: MRSA NCTC 10442; experiment: MIC, broth microdilution; assay type: cell-based; details: Staphylococcus aureus; 24-hour incubation, MHB; read-out: MIC90 MRSA NCTC 10442
Procedure: as §1

[8] = tested on: K. pneumonia ATCC 10031; experiment: MIC, broth microdilution; assay type: cell-based; details: Klebsiella pneumoniae, ATCC10031; 24-hour incubation, MHB
Procedure: as §1

[9] = tested on: A. baumannii R2889; experiment: MIC, broth microdilution; assay type: cell-based; details: Acinetobacter baumannii, 24-hour incubation, MHB
Procedure: as §1

[10] = tested on: P. aeruginosa ATCC 9027; experiment: MIC, broth microdilution; assay type: cell-based; details: Pseudomonas aeruginosa, ATCC9027; 24-hour incubation, MHB
Procedure: as §1

[11] = not the whole compound, cited from earlier work
[12] = tested on: tested strains (Gram-positive and Gram-negative bacteria); experiment: MIC, summary over the tested strains; assay type: cell-based; details: read-out: MICs against the tested strains
Procedure: as §1

[13] = tested on: Gram-positive bacteria; experiment: MIC, summary over Gram-positive strains; assay type: cell-based; details: read-out: MICs against Gram-positive bacteria, three Gram-positive strains
Procedure: as §1

[14] = tested on: Gram-negative bacteria; experiment: MIC, Gram-negative strains; assay type: cell-based; details: read-out: MICs against Gram-negative bacteria
Procedure: as §1

[15] = Gram-positive and Gram-negative strains

Row | Compound | MIC90 [1] | HC50 [2] | MIC90 [3] | MIC90 [4] | MIC90 [5] | MIC90 [6] | MIC90 [7] | MIC90 [8] | MIC90 [9] | MIC90 [10] | pKa ([11]; for the free primary amine group) | MIC ([12]; 24 h) | MIC [12, 15] | pKa ([11]; for the free thiomorpholine group) | MIC [13] | MIC [14]
1 | CC1(C)S[C@@H]2[C@H](NC(=O)[C@H](N)c3ccc(O)cc3)C(=O)N2[C@H]1C(=O)O [AMO, amoxicillin, reference compound] | 6.25 µg/mL (≈ 17.1 µM) | >200 µg/mL |  |  |  |  |  |  |  |  |  |  |  |  |  | 
2 | O=c1c2ccc(O)cc2oc2cc(O)cc(O)c12 [XT01] | > 100 µg/mL | >200 µg/mL | 50 µg/mL (≈ 205 µM) | 50 µg/mL (≈ 205 µM) | > 50 µg/mL | > 50 µg/mL | 50 µg/mL (≈ 205 µM) | > 50 µg/mL | > 50 µg/mL | > 50 µg/mL |  |  |  |  |  | 
3 | CC(C)=CCOc1cc(OCCCN)cc2oc3cc(OCCCN)ccc3c(=O)c12 [XT07] | 25 µg/mL (≈ 58.6 µM) | >200 µg/mL | 12.5 µg/mL (≈ 29.3 µM) | 12.5 µg/mL (≈ 29.3 µM) |  |  | 12.5 µg/mL (≈ 29.3 µM) |  |  |  | 10.54 | 12.5 to 50 µg/mL (≈ 29.3 to 117 µM) |  |  |  | 
4 | CNCCCOc1ccc2c(=O)c3c(OCC=C(C)C)cc(OCCCNC)cc3oc2c1 [XT08] | 25 µg/mL (≈ 55 µM) | >200 µg/mL | 12.5 µg/mL (≈ 27.5 µM) | 12.5 µg/mL (≈ 27.5 µM) |  |  | 12.5 µg/mL (≈ 27.5 µM) |  |  |  |  |  | 6.25 to 50 µg/mL (≈ 13.7 to 110 µM) |  |  | 
5 | CCN(CC)CCCOc1ccc2c(=O)c3c(OCC=C(C)C)cc(OCCCN(CC)CC)cc3oc2c1 [XT09] | 50 µg/mL (≈ 92.8 µM) | >200 µg/mL | 6.25 µg/mL (≈ 11.6 µM) | 12.5 µg/mL (≈ 23.2 µM) |  |  | 6.25 µg/mL (≈ 11.6 µM) |  |  |  |  |  | 6.25 to 50 µg/mL (≈ 11.6 to 92.8 µM) |  |  | 
6 | CCCCN(CCCC)CCCOc1ccc2c(=O)c3c(OCC=C(C)C)cc(OCCCN(CCCC)CCCC)cc3oc2c1 [XT10] | > 50 µg/mL | >200 µg/mL | 12.5 µg/mL (≈ 19.2 µM) | 6.25 µg/mL (≈ 9.6 µM) |  |  | 12.5 µg/mL (≈ 19.2 µM) |  |  |  |  |  |  |  |  | 
7 | CC(C)=CCOc1cc(OCCCN2CCSCC2)cc2oc3cc(OCCCN4CCSCC4)ccc3c(=O)c12 [XT11] | > 50 µg/mL | >200 µg/mL | > 50 µg/mL | > 50 µg/mL |  |  | > 50 µg/mL |  |  |  |  | > 50 µg/mL |  | 9.0 |  | 
8 | CC(C)=CCOc1cc(OCCCN2CCCC2)cc2oc3cc(OCCCN4CCCC4)ccc3c(=O)c12 [XT12] | 25 µg/mL (≈ 46.8 µM) | >200 µg/mL | 6.25 µg/mL (≈ 11.7 µM) | 12.5 µg/mL (≈ 23.4 µM) |  |  | 6.25 µg/mL (≈ 11.7 µM) |  |  |  |  |  | 6.25 to 25 µg/mL (≈ 11.7 to 46.8 µM) |  |  | 
9 | CC(C)=CCOc1cc(OCCCNCCN(CCN)CCN)cc2oc3cc(OCCCNCCN(CCN)CCN)ccc3c(=O)c12 [XT13] | 50 µg/mL (≈ 73 µM) | >200 µg/mL | 6.25 µg/mL (≈ 9.13 µM) | 6.25 µg/mL (≈ 9.13 µM) |  |  | 6.25 µg/mL (≈ 9.13 µM) |  |  |  |  |  | 6.25 to 50 µg/mL (≈ 9.13 to 73 µM) |  |  | 
10 | CNCCCOc1ccc2c(=O)c3c(OCCCC(F)(F)F)cc(OCCCNC)cc3oc2c1 [XT16] | > 100 µg/mL | >200 µg/mL | 50 µg/mL (≈ 101 µM) | > 50 µg/mL |  |  | > 50 µg/mL |  |  |  |  | 50 to 100 µg/mL (≈ 101 to 201 µM) |  |  |  | 
11 | [H]/N=C(/N)NCCCOc1ccc2c(=O)c3c(OCC=C(C)CCC=C(C)C)cc(OCCCNC(=N)N)cc3oc2c1 [XT18] | 1.56 µg/mL (≈ 2.7 µM) | 65.3 ± 2.75 µg/mL | 0.78 µg/mL (≈ 1.35 µM) | 0.78 µg/mL (≈ 1.35 µM) | 12.5 µg/mL (≈ 21.6 µM) | 25 µg/mL (≈ 43.2 µM) | 0.78 µg/mL (≈ 1.35 µM) | 6.25 µg/mL (≈ 10.8 µM) | 12.5 µg/mL (≈ 21.6 µM) | 12.5 µg/mL (≈ 21.6 µM) |  |  |  |  | 0.39 µg/mL (≈ 0.674 µM) | 1.56 µg/mL (≈ 2.7 µM)
12 | COc1cc(OCCCNC(=N)N)cc2oc3cc(OCCCNC(=N)N)ccc3c(=O)c12 [XT19] | 100 µg/mL (≈ 219 µM) | >200 µg/mL | 6.25 µg/mL (≈ 13.7 µM) | 12.5 µg/mL (≈ 27.4 µM) |  |  | 6.25 µg/mL (≈ 13.7 µM) |  |  |  |  |  |  |  | 6.25 to 12.5 µg/mL (≈ 13.7 to 27.4 µM) | 100 µg/mL (≈ 219 µM)

— PMC11881906, “Development of xanthone derivatives as effective broad-spectrum antimicrobials: Disrupting cell wall and inhibiting DNA synthesis” (Science Advances, 2025)
